# US20140255471A1, “METHOD OF TREATING BRAIN TUMORS” (Wake Forest University Health Sciences, priority 2013, published 2014)
# Read-outs that look alike come from different tables or passages of the source.
# How the values were obtained:
# [1] = system: primary astrocyte cultures; assay: Viability of primary astrocyte cultures; conditions: same doses as for neurons (up to 1 μM)
# primary cortical neurons = assay: Viability of primary cortical neuronal cultures; conditions: 1 μM, 72 hours in culture
# Description: Cortical neuronal cultures were prepared using previously described protocols. […] The tissue was further dissected into smaller pieces. After washes in cold PBS without Ca^+2/Mg^+2, tissue was incubated in 0.05% trypsin in PBS without Ca^+2/Mg^+2. Tissue was then dissociated in NB media using a blue-tip pipette. Dissociated cells were layered onto a 4% BSA cushion to remove debris. Cells were plated in NB media at a density 4×10^4 cells/well in a 24 well dish. After 24 hours, media was removed and replaced with fresh media with or without 5FU or F10. After 72 hours in culture, surviving neurons were counted. To be counted a cell had to have a phase-bright cell body and at least one neurite that was at least two times the diameter of the soma. Results are expressed as percent control (Mean±SD) where control represents cultures without the addition of 5FU or F10 (n=4 individual experiments with at least two wells per condition). Statistical significance was determined with a one-way ANOVA followed by the Bonferroni post-hoc test.
# [2] = system: CNS malignancies included in the NCI 60 cell line panel; conditions: all CNS malignancies included in the NCI 60 cell line panel; cited from earlier work
# SF-295 = conditions: at or below lowest concentration evaluated; cited from earlier work
# U138 cells [3] = assay: Radiosensitization of U138 cells (clonogenic, 6 Gy); format: cell-based, human; conditions: FdUMP[10] and AZD7762 given before irradiation
# Description: FIG. 9. Treating human glioma U138 cells with FdUMP[10] and AZD7726 enhanced their radiosensitivity. 500-2000 U138 cells were seeded into 60 mm dishes and treated with 1 nM FdUMP[10] (F1) for 9 h and 10 nM AZD7726 (A2) for 1 h prior to irradiation with a single dose of 6 Gy. Cells were fixed and stained with violet blue and colonies were counted using a colony counter at 10 days post-treatment. The study indicates combined treatment U138 with FdUMP[10] and AZD7762 sensitize cells to radiation.
# Radiation is cytotoxic as a consequence of unrepaired DNA damage. […] In these studies, FdUMP[10] was administered […] prior to irradiation and AZD7762 1 h prior to radiation. Though not wishing to be bound by theory, it is thought that radiosensitization results from induction of a thymineless state following FdUMP[10] treatment and disabling of HRR and abrogation of the G2 checkpoint following AZD7762 treatment. Under these conditions, DNA repair of radiation-induced DNA damage is inhibited due to lack of thymidine while inhibiting Rad51 activation prevents HRR which is important for repair of radiation-induced DNA DSBs (Helleday 2010). Abrogating the G2-checkpoint causes cells to enter mitosis with lethally-damaged DNA enhancing the cytotoxic effects of radiation.
# U-251 MG = conditions: cited from earlier work
# G48a cells = assay: Cytotoxicity (cell viability) towards G48a GBM cells; format: cell-based, human; conditions: G48a cell line; FIG. 1C
# SF-539 = conditions: at or below lowest concentration evaluated; cited from earlier work
# [4] = system: CNS malignancies included in the NCI 60 cell line panel; assay: NCI 60 cell line screen, CNS malignancies of the panel; format: cell-based, human; conditions: several GBM cell lines
# [5] = molecular target: T1, DNA Topoisomerase 1 (Top1) cleavage complex (Homo sapiens, UniProt P11387); assay: In vivo complex of enzyme (ICE) bioassay; format: cell-based; conditions: SNB-19 and U-251 MG cells
# T1 construct: endogenous in cells; host or cells: SNB-19 and U-251 MG GBM cells
# T1 sequence (P11387 2-765 limits assumed): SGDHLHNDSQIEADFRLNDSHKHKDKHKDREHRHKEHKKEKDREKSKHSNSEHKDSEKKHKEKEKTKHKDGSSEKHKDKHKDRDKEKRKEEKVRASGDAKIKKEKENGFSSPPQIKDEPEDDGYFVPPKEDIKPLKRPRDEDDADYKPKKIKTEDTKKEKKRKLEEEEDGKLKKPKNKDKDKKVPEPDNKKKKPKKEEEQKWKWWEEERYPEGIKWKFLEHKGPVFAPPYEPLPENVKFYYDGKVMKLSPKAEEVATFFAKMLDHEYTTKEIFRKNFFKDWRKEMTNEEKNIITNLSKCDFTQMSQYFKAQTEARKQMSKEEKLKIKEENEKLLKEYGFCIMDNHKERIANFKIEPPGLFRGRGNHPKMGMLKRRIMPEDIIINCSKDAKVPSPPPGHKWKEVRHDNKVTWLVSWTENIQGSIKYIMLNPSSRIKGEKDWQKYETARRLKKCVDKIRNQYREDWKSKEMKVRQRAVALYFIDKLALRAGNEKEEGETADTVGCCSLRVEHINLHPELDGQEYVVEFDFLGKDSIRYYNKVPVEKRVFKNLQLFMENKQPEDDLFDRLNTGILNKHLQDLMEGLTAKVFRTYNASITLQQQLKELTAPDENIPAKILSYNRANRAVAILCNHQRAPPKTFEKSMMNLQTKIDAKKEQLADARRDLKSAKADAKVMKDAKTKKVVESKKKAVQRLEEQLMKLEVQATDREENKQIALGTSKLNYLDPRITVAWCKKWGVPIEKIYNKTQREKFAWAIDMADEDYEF
# Description: G48a and primary explant cells derived from patient GBM tumors were grown in RPMI 1640 (Lonza, Rockland, Me.) supplemented with 10% FBS and glucose (2 g/L). G48a-luciferase cells were produced by lentiviral infection using a GFP-tagged vector. Cells were selected using blastocydin (10 μg/mL). U-251 MG and SNB-19 cells were obtained from ATCC and grown in RPMI 1640 (Lonza, Rockland, Me.) supplemented with 10% FBS and glucose (2 g/L). U-251 MG cells were grown in DMEM supplemented with 10% FBS and non-essential amino acids. In vivo complex of enzyme (ICE) bioassays were completed using methods similar to those previously described. (Liao et al., A novel polypyrimidine antitumor agent FdUMP[10] induces thymineless death with topoisomerase I-DNA complexes. Cancer Res. 2005; 65(10:4844-4851) GBM cells were incubated with F10 at the indicated concentrations for 0-48 hrs. Thymidine (Thy) rescue was accomplished by adding Thy at 80 μM, as the 20 μM dose previously described (Wang et al., Mechanisms of acquired chemoresistance to 5-fluorouracil and tomudex: thymidylate synthase dependent and independent networks. Cancer Chemother Pharmacol. 2007; 59(6):839-845) was not effective for rescue. Cell samples were counted and equalized for cell number. Primary antibody (mouse anti-human DNA Top I, BD Pharmingen) was added at 1:500 dilution. Secondary antibody (Cell Signaling) was used at 1:1000. […]
# U138 cells [6] = assay: Clonogenic survival of U138 cells; format: cell-based, human; conditions: 1 nM FdUMP[10] and/or 10 nM AZD7762, drugs removed after 72 h, colonies counted 10 days post-treatment
# Description: 500-2000 U138 cells were seeded into 60 mm dishes and treated with 1 nM FdUMP[10] (F1) and/or 10 nM AZD7726 (A2) and the drugs were removed after 72 h. Cells were fixed and stained with violet blue and colonies were counted using a colony counter 10 days post-treatment. […] The results are consistent with FdUMP[10]AZD7762 being synergistic at decreasing the clonogenicity of U138 cells.
# [7] = molecular target: T2, thymidylate synthase (TS) (Homo sapiens, UniProt P04818); assay: TS catalytic activity assay in lysates of treated GBM cells; format: cell-based; conditions: G48a, U-251 MG and SNB-19 GBM cells; F10 10^−6 and 10^−5 M, raltitrexed 10^−6 M
# T2 construct: harvested, and lysed by freeze-fracturing; Following centrifugation of cell lysates, supernatants were assayed for protein content and TS catalytic activity; endogenous in cells; host or cells: G48a, U-251 MG and SNB-19 GBM cells
# T2 sequence (P04818 2-313 limits assumed): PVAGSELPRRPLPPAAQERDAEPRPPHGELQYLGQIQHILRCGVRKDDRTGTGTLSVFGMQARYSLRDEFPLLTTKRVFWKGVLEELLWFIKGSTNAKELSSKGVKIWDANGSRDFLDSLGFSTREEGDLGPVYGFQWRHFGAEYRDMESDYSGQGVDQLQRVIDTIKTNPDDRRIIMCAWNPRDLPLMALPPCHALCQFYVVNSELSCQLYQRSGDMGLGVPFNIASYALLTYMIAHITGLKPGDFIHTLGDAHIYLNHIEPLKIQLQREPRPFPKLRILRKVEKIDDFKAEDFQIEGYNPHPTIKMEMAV
# Description: TS assays were conducted using procedures similar to those previously described. (Gmeiner et al., Enhanced DNA-directed effects of FdUMP[10] compared to 5FU. Nucleosides Nucleotides Nucleic Acids. 2004; 23(1-2):401-410.) GBM cells were plated at a density of 1.5×10^6 cells in 100 mm^2 plates. Cells were grown overnight in RPMI 1640 medium with 10% FBS. Either 5FU (Sigma), F10, or raltitrexed were then added at the indicated concentrations and the cells were incubated for 8, 16, 24, or 48 hrs, harvested, and lysed by freeze-fracturing. Following centrifugation of cell lysates, supernatants were assayed for protein content and TS catalytic activity as previously described. (Gmeiner et al., Enhanced DNA-directed effects of FdUMP[10] compared to 5FU. Nucleosides Nucleotides Nucleic Acids. 2004; 23(1-2):401-410.)
# [8] = Dose-finding / tolerability upon i.c. administration; format: in vivo, nude mice
# Text: The nanoscale size of F10 (length ˜3 nm), as well as its multiple negative charges, make penetration of the BBB following systemic delivery an inefficient process. Conversely, intra-cranial (i.c.) administration of F10 is expected to result in high local concentrations that may be therapeutically beneficial, particularly in light of the relatively strong cytotoxicity towards GBM cells and the minimal toxicity of F10 towards primary cortical neurons (FIG. 3A). Dose-finding studies in nude mice were performed to identify doses that were sufficiently well-tolerated to be evaluated in efficacy studies. F10 was dissolved in PBS and administered i.e. using an Alzet osmotic mini-pump over a 7 day period. Vehicle-only served as a control. […] These dose levels are considerably lower than those used in recent leukemia studies in which F10 was administered systemically (200 mg/kg qodx4) (Pardee et al., Unique dual targeting of thymidylate synthase and topoisomerase 1 by FdUMP[10] results in high efficacy against AML and low toxicity. Blood. 2012; 119(15):3561-3570), consistent with F10 being retained within the BBB upon i.c. administration.
# SF-268 = conditions: at or below lowest concentration evaluated; cited from earlier work
# [9] = system: G48a orthotopic xenografts
# Description: G48a-luc were suspended into Hanks Balanced Salt Solution to a density of 10^5 cells/μL. Nude (nu/nu) 7-week old mice were obtained from NCI. Mice were anesthetized using a ketamine/xylazine mixture and placed on a small-animal, head-holding frame. A scalp incision was made to determine the drill-hole location, 1 mm right and 1 mm anterior to lambda. A 27-gauge needle attached to a 10 mL sterile Hamilton syringe (Hamilton, Reno, Nev.) was stereotactically inserted 3 mm below the dural surface and cells were injected into the deep white matter of the posterior thalamus. Cells were injected in a total of 5 μL over a five minute period. The syringe was removed two minutes after the injection was completed, retracting it at a rate of 0.5 mm per minute. After removal of the syringe, the hole was covered with cranio-plastic liquid. Animals were sutured, allowed to recover on a heating pad, and returned to their cages. Animal weight and behavior was monitored every three days.
# Starting on day 21 after tumor cell implantation, mice were treated by intra-cerebral (i.c.) infusion (0.5 μL/h) of F10 at 3 concentrations (80, 120 and 160 mg/kg) for a duration of 7 days. Drug was prepared in phosphate buffered saline. Osmotic pumps (ALZET® model 1007D, Alzet, Cupertino, Calif.) were primed in sterile saline overnight at 37° C. according to manufacturer's specification. The pumps were then coupled to brain infusion kits (ALZET® model 3). Animals were anesthetized using a ketamine/xylazine mixture and placed on a small-animal head holding frame, and the location of initial injection (1 mm right and 1 mm anterior to lambda) was retraced. The cannula was then inserted to a depth of 3 mm and secured with cranio-plastic adhesive and the pump was placed subcutaneously between the shoulder blades. Animals were sutured, allowed to recover and evaluated for any motor deficits resulting from the surgical procedure. […] Animals were euthanized 24 hours post-treatment when body weight loss was above 12% or when behavior prevented normal activity.
# Animals received an intraperitoneal (i.p.) injection of D-luciferin (150 mg/kg, stock solution 15 mg/mL in sterile PBS, Goldbio, St. Louis, Mo.), After 10 min, animals were anesthetized with isofluorane until non-responsive, and then placed in the imaging chamber. Three bioluminescent imaging acquisitions were collected at different exposure times (10, 60, 300 sec). Mice were allowed to recover and returned to their cages. Data were analyzed based on total photon flux emission (photons) in the region of interest over the intracranial space using Living Image software (Xenogen Corp.).
# Animals were deeply anesthetized with an i.p injection of ketamine/xylazine and fixed by transcardial perfusion through the heart with PBS (pH=7.4) followed by 4% paraformaldehyde in PBS (PFA). Brains were removed and fixed overnight in 4% PFA. Brains were then cryoprotected in 30% sucrose-PBS at 4° C. for 2-3 days, Brains were embedded in tissue-freezing medium (Triangle Biomedical Sciences, Durham, N.C.) and sections were cut to a thickness of 10 μm, thawed onto SuperFrost Plus slides (Fisher, Pittsburgh, Pa.) and kept at −20° C. until further processing. Sections from vehicle- and F10-treated animals were thawed prior to exposure with primary antibodies. Endogenous peroxidase activity and non-specific biotin was quenched with Peroxide Blocking Kit and Biotin Blocking Kit, respectively (ScyTek Laboratories, Logan, Utah). Antigen retrieval was performed with 10 mM sodium citrate buffer, pH 6.0, by microwaving for 5 min. Slides were blocked with SuperBlock (ScyTek) and incubated with polyclonal EphA2 antibody (R&D Systems, Minneapolis, Minn.) overnight at 4° C.
# U138 cells [10] = assay: Flow cytometry of DNA content and cleaved caspase 3 in U138 cells; format: cell-based, human
# Description: U138 cells were treated with 1 nM FdUMP[10] and/or 10 nM of AZD7762 for 9 or 1 h, respectively, prior to irradiation with a single dose of 6 Gy. Cells were harvested 24 h post-irradiation and analyzed for DNA content (A) and cleaved caspase 3 (B) by flow cytometry.
# SNB-19 = conditions: cited from earlier work
# [11] = with irradiation 6 Gy, 1 nM FdUMP[10] 9 h and/or 10 nM AZD7762 1 h before, 24 h post-irradiation
molecule,measurement,setting,value
"O=c1[nH]cc(F)c(=O)[nH]1 [5FU, 5-fluorouracil]","viability of primary astrocyte cultures, treated vs control",[1],no apparent differences in viability
same,decreased viability for cortical neurons relative to control,primary cortical neurons,approximately 50%
FdUMP[10] [F10],GI50,[2],< 1000 nM
same,GI50,SF-295,≤ 5 nM
same,radiosensitization,U138 cells [3],neither FdUMP[10] nor AZD7762 are appreciably radiosensitizing
same,GI50,U-251 MG,115 nM
same,IC50,G48a cells,~1000 nM
same,GI50,SF-539,≤ 5 nM
same,differential sensitivity for F10 relative to 5FU,[4],"~10,000 fold"
same,Top1CC formation,[5],induces Top1CC formation
same,survival fraction,U138 cells [6],0.84
same,TS inhibition,[7],inhibited TS completely
same,well-tolerated dose,"[8]; i.c., osmotic mini-pump over 7 days",up to 200 mg/kg
same,appearance and behaviour of mice,"[8]; mouse, in vivo","light-sensitive, with eyes partially closed, and were more lethargic than mice treated with vehicle-only"
same,GI50,SF-268,≤ 5 nM
same,"EphA2 staining, tumor-bearing side",[9]; 80 mg/kg,only trace levels of EphA2 positive staining
same,"EphA2 staining, tumor-bearing side",[9]; 120 mg/kg,no EphA2 staining
same,mean tumor volumes (%-change in photon emission),"[9]; 120 mg/kg i.c. over 7 days, p<0.01",significantly decreased relative to control
same,extent of tumor cell necrosis (H&E),[9]; 120 mg/kg vs 80 mg/kg,greater tumor cell necrosis than the 80 mg/kg dose
same,luminescent signal (IVIS imaging),[9]; 160 mg/kg i.c. over 7 days,did not display decreased lumincescent signal
same,treatment effect by histology,[9]; 160 mg/kg i.c. over 7 days,significant treatment effect
same,tumor regression (IVIS imaging),[9]; 80 and 120 mg/kg i.c. over 7 days,significant tumor regression
same,necrosis in tumor tissue (H&E),[9]; 80 or 120 mg/kg i.c. over 7 days,extensive areas of necrosis selectively within tumor tissue
same,necrosis in contralateral side of brain (H&E),"[9]; mouse, in vivo",no observable necrosis
same,DNA content / cell cycle,U138 cells [10]; 1 nM FdUMP[10] and/or 10 nM AZD7762,causes G2-arrest
same,cleaved caspase 3 (apoptosis),U138 cells [10]; [11],result predominantly in apoptotic cells
same,GI50,SNB-19,170 nM
"NC(=O)Nc1cc(-c2cccc(F)c2)sc1C(=O)N[C@H]1CCCNC1 [AZD7762, reference compound]",radiosensitization,U138 cells [3],neither FdUMP[10] nor AZD7762 are appreciably radiosensitizing
same,survival fraction,U138 cells [6],0.80
same,cleaved caspase 3 (apoptosis),U138 cells [10]; [11],do not result in significant percent of cleaved caspase 3
same,cleaved caspase 3 (apoptosis),"U138 cells [10]; without irradiation, 10 nM AZD7762",do not result in significant percent of cleaved caspase 3
"Cc1nc2ccc(CN(C)c3ccc(C(=O)N[C@@H](CCC(=O)O)C(=O)O)s3)cc2c(=O)[nH]1 [Raltitrexed, reference compound]",TS inhibition,[7],effectively inhibited TS
